Marks after values point to notes of the source that are not given here.

We go through four molecules from patent US9901573B2, “Compositions, methods, and kits for regulating energy metabolism” (NuSirt Sciences, Inc., priority 2012, dated 2018).

In assay [1] the test system is C2C12 myotubes. Put plainly: Fatty acid oxidation (O2 consumption response to palmitate) in myotubes. Format: cell-based. Conditions: vs control. How it is done:
Cell Culture: C2C12 and 3T3-L1 preadipocytes (American Type Culture Collection) were plated at a density of 8000 cells/cm^2 (10 cm^2 dish) and grown in Dulbecco's modified eagle's medium (DMEM) containing 10% fetal bovine serum (FBS), and antibiotics (growth medium) at 37° C. in 5% CO2. Confluent 3T3-L1 preadipocytes were induced to differentiate with a standard differentiation medium consisting of DMEM medium supplemented with 10% FBS, 250 nM dexamethasone, 0.5 mM 3-Isobutyl-1-methylxanthine (IBMX) and 1% penicillin-streptomycin. Preadipocytes were maintained in this differentiation medium for 3 days and subsequently cultured in growth medium. Cultures were re-fed every 2-3 days to allow >90% cells to reach fully differentiation before conducting chemical treatment. For differentiation of C2C12 cells, cells were grown to 100% confluence, transferred to differentiation medium (DMEM with 2% horse serum and 1% penicillin-streptomycin), and fed with fresh differentiation medium every day until myotubes were fully formed (3 days). Fatty acid oxidation: Cellular oxygen consumption was measured using a Seahorse Bioscience XF24 analyzer (Seahorse Bioscience, Billerica, Mass.) in 24-well plates at 37° C., as described by Feige et al (1) with slight modifications. Cells were seeded at 40,000 cells per well, differentiated as described above, treated for 24 hours with the indicated treatments, washed twice with non-buffered carbonate-free pH 7.4 low glucose (2.5 mM) DMEM containing carnitine (0.5 mM), equilibrated with 550 μL of the same media in a non-CO2 incubator for 45 minutes, and then inserted into the instrument for 15 minutes of further equilibration, followed by O2 consumption measurement. Three successive baseline measurements at five-minute intervals were taken prior to injection of palmitate (200 μM final concentration). Four successive 5-minute measurements of O2 consumption were then conducted, followed by 10 minute re-equilibration and another 3-4 5-minute measurements. This measurement pattern was then repeated over a 4-6 hour period. Data for each sample were normalized to the pre-palmitate injection baseline for that sample and expressed as % change from that baseline. […] The area under of the curve of O2 consumption change from baseline for each sample was then calculated and used for subsequent analysis.

Assay [2] deals with C2C12 myotubes. Put plainly: Mitochondrial biogenesis (mitochondrial mass, NAO probe). Conditions: FIG. 13. Format: cell-based. How it is done:
(§1) Cell Culture: C2C12 and 3T3-L1 preadipocytes (American Type Culture Collection) were plated at a density of 8000 cells/cm^2 (10 cm^2 dish) and grown in Dulbecco's modified eagle's medium (DMEM) containing 10% fetal bovine serum (FBS), and antibiotics (growth medium) at 37° C. in 5% CO2. Confluent 3T3-L1 preadipocytes were induced to differentiate with a standard differentiation medium consisting of DMEM medium supplemented with 10% FBS, 250 nM dexamethasone, 0.5 mM 3-Isobutyl-1-methylxanthine (IBMX) and 1% penicillin-streptomycin. Preadipocytes were maintained in this differentiation medium for 3 days and subsequently cultured in growth medium. Cultures were re-fed every 2-3 days to allow >90% cells to reach fully differentiation before conducting chemical treatment. For differentiation of C2C12 cells, cells were grown to 100% confluence, transferred to differentiation medium (DMEM with 2% horse serum and 1% penicillin-streptomycin), and fed with fresh differentiation medium every day until myotubes were fully formed (3 days). Mitochondrial biogenesis: Mitochondrial biogenesis was assessed as change in mitochondrial mass, as previously described (2). The mitochondrial probe NAO (Invitrogen, Carlsbad, Calif.) was used to analyze mitochondrial mass by fluorescence (excitation 485 nm and emission 520 nm) and quantitative data was obtained with a fluorescence microplate reader (Synergy HT, BioTek Instruments, Winooski, Vt.). The intensity of fluorescence was expressed as arbitrary units per μg protein and normalized to control values within each assay.

The test system of another assay is Phospho-AMPKα (Thr172). Put plainly: Phospho-AMPKα (Thr172) Western blot in myotubes. Format: cell-based. The note with it: C2C12 myotubes, FIG. 11. On the procedure: as §1, with “days).” for “days). Mitochondrial biogenesis: Mitochondrial biogenesis was assessed as change in mitochondrial mass, as previously described (2). The mitochondrial probe NAO (Invitrogen, Carlsbad, Calif.) was used to analyze mitochondrial mass by fluorescence (excitation 485 nm and emission 520 nm) and quantitative data was obtained with a fluorescence microplate reader (Synergy HT, BioTek Instruments, Winooski, Vt.). The intensity of fluorescence was expressed as arbitrary units per μg protein and normalized to control values within each assay.”
Western blot: The Phospho-AMPKα (Thr172)- and Sirt1 (mouse specific)-antibody was obtained from Cell Signaling (Danvers, Mass.). C2C12 myotubes were treated as indicated in results and the cellular fractions were prepared using standard methods. Protein was measured by BCA kit (Thermo Scientific). […] Visualization and chemiluminescent detection was conducted using BioRad ChemiDoc instrumentation and software (Bio-Rad Laboratories, Hercules, Calif.) and band intensity was assessed using Image Lab 4.0 (Bio-Rad Laboratories, Hercules, Calif.), with correction for background and loading controls. P-AMPK was detected at 61-66 kDA and Sirt1 was detected at 104-115 kDA.

The test system of assay [3] is 3T3-L1 adipocytes. Description: Glucose utilization (extracellular acidification) in adipocytes. The assay is classed as cell-based. Conditions: FIG. 10. On the procedure: (§2) Cell Culture: C2C12 and 3T3-L1 preadipocytes (American Type Culture Collection) were plated at a density of 8000 cells/cm^2 (10 cm^2 dish) and grown in Dulbecco's modified eagle's medium (DMEM) containing 10% fetal bovine serum (FBS), and antibiotics (growth medium) at 37° C. in 5% CO2. Confluent 3T3-L1 preadipocytes were induced to differentiate with a standard differentiation medium consisting of DMEM medium supplemented with 10% FBS, 250 nM dexamethasone, 0.5 mM 3-Isobutyl-1-methylxanthine (IBMX) and 1% penicillin-streptomycin. Preadipocytes were maintained in this differentiation medium for 3 days and subsequently cultured in growth medium. Cultures were re-fed every 2-3 days to allow >90% cells to reach fully differentiation before conducting chemical treatment. […]
(§3) Glucose Utilization: In the absence of a fatty acid source and oxidative metabolism, glycolysis and subsequent lactate production results in extracellular acidification, which was also measured using a Seahorse Bioscience XF24 analyzer. […] Data for each sample were normalized to the pre-glucose injection baseline for that sample and expressed as % change from that baseline. The area under of the curve of extracellular acidification change from baseline for each sample was the calculated and used for subsequent analysis.

Assay [4] concerns 3T3-L1 adipocytes. Put plainly: Intracellular Ca2+ by fura-2 imaging in adipocytes. Format: cell-based. On the procedure:
Cell culture: 3T3-L1 pre-adipocytes were incubated at a density of 8000 cells/cm^2 (10 cm^2 dish) and grown in the absence of insulin in Dulbecco's modified Eagle's medium (DMEM) containing 10% FBS and antibiotics (1% penicillin-streptomycin)(adipocyte medium) at 37° C. in 5% CO2 in air. Confluent pre-adipocytes were induced to differentiate with a standard differentiation medium consisting of DMEM-F10 (1:1, vol/vol) medium supplemented with 1% fetal bovine serum (FBS), 250 nM dexamethasone (DEXA), isobutylmethylxanthine (IBMX) (0.5 mM) and antibiotics. Pre-adipocytes were maintained in this differentiation medium for 3 days (unless specifically indicated) and subsequently cultured in adipocyte medium. Cultures were re-fed every 2-3 days to allow 90% cells to reach fully differentiation before treatment.
Intracellular Ca^2+ ([Ca^2+]i): [Ca^2+]i was measured using a fura-2 dual wavelength fluorescence imaging system. Adipocytes were plated and differentiated in 35 mm dishes with glass coverslips (P35G-0-14-C, MatTek Corporation). Prior to [Ca^2+]i measurement, cells were preincubated in serum-free medium overnight and rinsed with Hepes Balanced Salt Solution (HBSS) containing the following components (in mM): NaCl 138, CaCl2 1.8, MgSO4 0.8, NaH2PO4 0.9, NaHCO3 4, glucose 5, glutamine 6, Hepes 20, and bovine serum albumin 1%. Cells were loaded with fura-2 acetoxymethyl ester (AM) (10 μM) in the same buffer for 2 hr at 37° C. in a dark incubator with 5% CO2. To remove extracellular dye, cells were rinsed with HBSS 3 times and then postincubated at room temperature for an additional 1 hr for complete hydrolysis of cytoplasmic fura-2 AM. The dishes with dye-loaded cells were mounted on the stage of Nikon TMS-F fluorescence inverted microscope with a Cohu 4915 CCD camera. Fluorescent images were captured alternatively at excitation wavelength of […] with an emission wavelength of 520 nm. [Ca^2]i was calculated using a standard ratio equation. Each analysis evaluated responses of 8-10 representative whole cells. Images were analyzed with InCytIm2 version 4.62 imaging software (Intracellular Imaging, Cincinnati, Ohio). Images were calibrated using a fura-2 calcium imaging calibration kit (Molecular Probes, Eugene, Oreg.) to create a calibration curve in solution, and cellular calibration was accomplished using digitonin (25 μM) and pH 8.7 Tris-EGTA (100 mM) to measure maximal and minimal [Ca^2+]i levels.

A further assay concerns Sirt1. Description: Sirt1 protein expression Western blot in myotubes. The assay is classed as cell-based, mouse. Conditions: C2C12 myotubes, FIG. 12. On the procedure:
as §2
Western blot: The Phospho-AMPKα (Thr172)- and Sirt1 (mouse specific)-antibody was obtained from Cell Signaling (Danvers, Mass.). […] Protein was measured by BCA kit (Thermo Scientific). […] Visualization and chemiluminescent detection was conducted using BioRad ChemiDoc instrumentation and software (Bio-Rad Laboratories, Hercules, Calif.) and band intensity was assessed using Image Lab 4.0 (Bio-Rad Laboratories, Hercules, Calif.), with correction for background and loading controls. P-AMPK was detected at 61-66 kDA and Sirt1 was detected at 104-115 kDA.

Assay [5] concerns C2C12 myotubes. Put plainly: Glucose utilization (extracellular acidification) in myotubes. The assay is classed as cell-based. The note with it: FIG. 9. How it is done:
as §2, §3

The subject of assay [6] is 3T3-L1 adipocytes. Description: Fatty acid oxidation (O2 consumption response to palmitate) in adipocytes. The assay is classed as cell-based. Conditions: FIG. 8, % change from control. On the procedure:
as §2
Fatty acid oxidation: Cellular oxygen consumption was measured using a Seahorse Bioscience XF24 analyzer (Seahorse Bioscience, Billerica, Mass.) in 24-well plates at 37° C., as described by Feige et al (1) with slight modifications. […] Data for each sample were normalized to the pre-palmitate injection baseline for that sample and expressed as % change from that baseline. […] The area under of the curve of O2 consumption change from baseline for each sample was then calculated and used for subsequent analysis.

Setting [7] is: FIG. 4/5, 24 hours, leucine, valine, isoleucine 0.5 mM, B6 100 nM as pyridoxal phosphate.

As to `CC(C)[C@H](N)C(=O)O` [valine], the “increase in fatty acid oxidation” value in the assay on C2C12 myotubes [1] (setting [7]) is given as “small change in fatty acid oxidation when compared to control”. Further, in the assay on C2C12 myotubes [2], the “increase in mitochondrial biogenesis (mitochondrial biomass)” value (from here on “increase in mitochondrial biogenesis”) is reported as “no significant effect”. Further, the “AMPK activation (Phosphorylated AMPK Thr172), increase” value in the assay with Phospho-AMPKα (Thr172) is reported as “Neither treatment with leucine, valine, nor B6 alone exerted any significant effect”.

Consider `Cc1ncc(COP(=O)(O)O)c(C=O)c1O` [PLP, pyridoxal phosphate], for which, in the assay with C2C12 myotubes [1] (setting [7]), the “increase in fatty acid oxidation” value is “no significant independent effect”. Also, the “increase in glucose utilization” value in the assay on 3T3-L1 adipocytes [3] and in the assay on C2C12 myotubes [5] was “no independent effect” each time. For the same molecule, the “Intracellular Ca2+” value in the assay on 3T3-L1 adipocytes [4] (PLP 50 nM) is reported as 133.2^c ± nM; in the assay on 3T3-L1 adipocytes [4] (PLP 100 nM) it was 96.3^b ± nM. Besides, the “Sirt1 protein levels, increase” value with Sirt1 is reported as “unaffected”. Further, in the assay with Phospho-AMPKα (Thr172), the “AMPK activation (Phosphorylated AMPK Thr172), increase” value is listed as “Neither treatment with leucine, valine, nor B6 alone exerted any significant effect”.

For the molecule `CN(C)C(=N)N=C(N)N` [metformin], the “increase in fatty acid oxidation” value in the assay on C2C12 myotubes [1] (FIG. 6/7, metformin 100 μM) is reported as “comparable effect”. Besides, the “increase in mitochondrial biogenesis” value with C2C12 myotubes [2] was “effect similar to leucine”.

Take `CC[C@H](C)[C@H](N)C(=O)O` [isoleucine]: the “increase in fatty acid oxidation” value is “small change in fatty acid oxidation when compared to control” in the assay on C2C12 myotubes [1] (setting [7]) and “small change from baseline” in the assay with 3T3-L1 adipocytes [6]. In addition, in the assay with C2C12 myotubes [2], the “increase in mitochondrial biogenesis” value is listed as “no significant effect”.
